Laboratory results reported in patent publication US6380167B1, “Methods for anti-tumor therapy” (priority 1999, dated 2002).
“Also recorded” adds a separate entry of the source. Like-named read-outs stand apart in the source and are kept apart here.

Columns and labels:
patient tumor cells = test: Comparison of cardiac glycosides in the anti-tumor assays; format: cell-based, human; conditions: cardiac glycosides tested
Method: Alamer Blue (Accumed International, Westlake Ohio) was then added to the cells at 1/10 the volume of the well, and the cells were further incubated at 37° C. for various times. Alamer Blue dye measures cellular re-dox reactions (ie: cellular respiration) whereby a spectral shift occurs upon reduction of the dye. (Excitation 530 nm; emission 590 nm)
The kinetics of cellular re-dox reactions were subsequently measured at various times, for example at 3 hours, 3 days, and 5 days post-dye addition.

[1] = in vivo; cited from earlier work
[2] = test system: cells derived from ovarian tumor tissue; test: Alamer Blue cellular respiration assay on cells derived from ovarian tumor tissue; format: cell-based; conditions: Homo sapiens
Excerpt: (§1) Excess tissue specimens obtained from a variety of organs and tissues such as colon, lung, kidney, stomach, and buttocks were obtained freshly at the time of surgery and samples were sent for pathological testing. For diagnosis and grading of tissue samples (ie: prior to processing), hematoxylin and eosin stained tissue sections were examined by a pathologist. If the diagnosis and grading of the tissue concurred with the determination made by the surgical pathologist that provided the tissue, then the tissue was used in the screen. If there was no agreement, then two additional pathologists served as referees. If no consensus was reached, then the tissue was discarded. […]
(§2) After tissue processing, the relative purity of the resulting cell suspension was determined by cytological examination after pap staining. […]
(§3) Cell preparations that passed histological and cytological examination for diagnosis, grading, and cell purity were thawed at 37° C. and resuspended in tissue culture medium designed to maintain the cells during the incubation period. The live and dead cells were counted and the cells were diluted in culture medium to 4.0×10^4 live cells/ml for tumor cells and 1.32×10^5 live cells/ml for normal cells. […]
(§4) The kinetics of cellular re-dox reactions were subsequently measured at various times, for example at 3 hours, 3 days, and 5 days post-dye addition. […]

[3] = toxic at concentrations above; cited from earlier work
[4] = test system: cells isolated from sarcoma patients; test: Alamer Blue cellular respiration assay on cells isolated from sarcoma patients; format: cell-based; conditions: Homo sapiens
Excerpt: as §1, §2, §3, §4

[5] = range over samples, read-out: IC50 (range)

Structure (SMILES)	activity in the assays compared with digitoxin (patient tumor cells)	bound to plasma proteins [1]	IC50 ([2]; mean, read-out: IC50 (mean)) [nM]	IC50 [2, 5] [nM]	toxic concentration [3]	IC50 ([4]; mean, read-out: IC50 (mean)) [nM]	IC50 [4, 5] [nM]
C[C@H]1O[C@@H](O[C@H]2[C@@H](O)C[C@H](O[C@H]3[C@@H](O)C[C@H](O[C@H]4CC[C@@]5(C)[C@H](CC[C@@H]6[C@@H]5C[C@@H](O)[C@]5(C)[C@@H](C7=CC(=O)OC7)CC[C@]65O)C4)O[C@@H]3C)O[C@@H]2C)C[C@H](O)[C@@H]1O [digoxin]	Digitoxin appeared more active in the assays then digoxin						
CC1OC(OC2C(O)CC(O[C@H]3CC[C@]4(C)C5CC[C@]6(C)[C@@H](C7=CC(=O)OC7)CC[C@]6(O)[C@@H]5CC[C@@H]4C3)O[C@@H]2C)C[C@H](O)[C@@H]1OC1CC(O)C(O)[C@@H](C)O1 (some centres unmarked) [digitoxin]		greater than 95%	47	31 to 126	above 35 ng/ml; also recorded: approximately 46 nM	25	13 to 48
C[C@@H]1O[C@@H](O[C@H]2C[C@@H](O)[C@]3(CO)[C@H]4[C@H](O)C[C@]5(C)[C@@H](C6=CC(=O)OC6)CC[C@]5(O)[C@@H]4CC[C@]3(O)C2)[C@H](O)[C@H](O)[C@H]1O [oubain]	equally active						
